From US4765972A (priority 1986, dated 1988) come the findings set out here.

Data set [1] relates to 54.3 kDa polypeptide (tubulin subunit). Kind of data set: Photolabelling of calf brain homogenate with ^3 H-NABV, 54.3 kDa polypeptide. The data set is classed as binding. The procedure:
(§1) Tissue homogenate high speed supernatant and pellet fractions were obtained by homogenizing 1 gram of calf brain in 10 ml volumes of 0.05 M potassium phosphate buffer, pH 7.4, for one minute with a Model PCU Polytron homogenizer with a PT-10-ST probe operated at 50% maximum power (Brinkmann Instruments, Westbury, NY). The brain tissue homogenate was collected after filtering through one layer of cheesecloth. Brain tissue high speed supernatant fractions were prepared by centrifuging the homogenates at 100,000×g for 60 minutes at 4° C. The resulting pellet was washed twice with five times its original volume of buffer, and recentrifuged as described. […] and supernatant fractions were stored in small aliquots in liquid nitrogen and thawed only once.
(§2) The standard photolabelling mixture used contained 50 nM ^3 H-NABV (50.6 Ci/mmol), 4% dimethylsulfoxide, […] potassium phosphate buffer, pH 7.0, and 2 mg/ml of tissue homogenate or high speed pellet or supernatant fractions in a final volume of 0.05 ml in polyvinylchloride V-microtiter wells (Dynatech Labs, Inc., Alexandria, VA) in a 25° C. water bath. Photolabelling mixtures were incubated for 15 minutes at 25° C. before photolysis. Photoactivation was performed for 10-20 minutes with a UV light equipped with two 15 W self-filtering 302 nm lamps (Model xx-15, Ultra-Violet Products, Inc., San Gabriel, CA), placed 3.4 cm above the photolabelling mixture. […] Photoactivated samples were immediately processed for SDS-PAGE or frozen at -70° C.
(§3) Equal volumes of SDS sample buffer were added to photolabelled mixtures in microliter wells. The mixtures were transferred to 0.5 ml centrifuge tubes. After heating for five minutes at 100° C. on a heating block, the mixtures were cooled on ice and sonicated for five seconds, cooled, and 0.08 ml aliquots of the mixtures were applied to separate wells of a 1.5 mm thick polyacrylamide slab gel.
(§4) Electrophoresis was performed as described by Laemmli in Nature (Lond.) 227, 680-685 (1970) with a linear polyacrylamide gradient from 9.7% acrylamide, 0.26% bis-acrylamide and 10% glycerol, to 16.6% acrylamide, 0.44% bis-acrylamide, and 17% glycerol using a Bio-Rad slab gel apparatus (Model 220, Richmond, CA) at 8 mA/gel for sixteen hours. Following fixation and staining of the gel, in 0.25% Coomassie brilliant blue, 45% methanol and 10% acetic acid, the lanes of stained polypeptide corresponding to each sample slot were cut and sliced into 1.0 mm slices. Each slice was incubated with 0.3 ml 30% H2 O2 in a closed scintillation vial at 100° C. for one hour to solubilize the gel slice, with radioactivity subsequently quantitated. The molecular weights of radioactive macromolecules were estimated by their mobilities relative to standard proteins of known molecular weights. (Bio-Rad, Richmone, CA). The radioactivity of photolabelled components was quantitated in triplicate by adding the dpm in each 1 mm gel slice through the radioactive peak.
(§5) The specific photolabelling was obtained by subtracting the nonspecific linear curve from the mixed biphasic profile.

Data set [2] concerns 21.5 kDa polypeptide. Briefly: Photolabelling of calf brain homogenate with ^3 H-NABV, 21.5 kDa polypeptide. The data set is classed as binding. The procedure:
as §1, §2, §3, §4, §5

Data set [3] relates to 150-180 kDa surface membrane glycoprotein (gp150-180). Briefly: Photoaffinity labelling of purified plasma membranes with ^125 I-NASV. The data set is classed as binding, Chinese hamster. To be noted: for increase of radiolabelling of the 150-180 kDa component versus drug-sensitive parental cells: plasma membranes. Here is the method: (§6) Cell lines were cultured as described by Peterson et al., Cancer Res. 43, 222-228 (1983) and by Meyers et al., J. Cell. Biol. 100, 588-597 (1985). Vincristine-resistant (DC-3F/VCRd-5L, 2750-fold resistant) and actinomycin D-resistant (DC=3F/ADX, 2450-fold resistant) variants were selected from Chinese hamster lung (DC-3F) cells as described in the above-cited articles. The drug-sensitive revertant (DC-3F/ADX-U, 30-fold resistant to actinomycin D) was obtained from DC-3F/ADX cells grown in the absence of drugs. The resistant cells expressed a typical multidrug-resistant phenotype as typified by cross-resistance to a number of unrelated natural product compounds. Whole cell particulate fractions were prepared by the sonication of drug-sensitive or drug-resistant cells in 50 mM potassium phosphate buffer (pH 7.4), followed by centrifugation at 100,000×g for one hour. The particulate pellet was washed by resuspending in the same buffer, and the whole cell particulate fraction was obtained by a second centrifugation. Purified plasma membranes were prepared by sucrose density gradient centrifugation as described in Peterson et al in J. Supramolecular Structure 9, 289-298 (1978). Protein concentrations were determined by the procedure of Lowry et al., J. Biol. Chem., 193, 265-275 (1951).
Photolabelling of membrane samples (50 micrograms protein) was performed in 40 nM potassium phosphate buffer (pH 7.0) containing 4% Me2 SO and 50 nM of either ^3 H-NABV (0.1 microCi) or ^125 I-NASV (0.2 microCi) in a final volume of 0.050 ml. […] SDS-PAGE of 5-15% gradient gels containing 4.5 M urea, fluorography, and autoradiography were performed as described by Felsted et al. in Blood 66, 606-613 (1985). The quantitation of radiolabelling was accomplished by cutting appropriate areas from the gel and counting the pieces in a gamma counter.
A plasma membrane localization for the 150-180 kDa component was established by photoaffinity labelling sucrose density gradient purified plasma membranes from drug-sensitive and drug-resistant cells with ^3 H-NABV. […] These membranes, as well as membranes from another multidrug-resistant variant (DC-3F/ADX) originally selected for resistance to actinomycin D and from a revertant (DC-3F/ADX-U) obtained from the DC-3F/ADX variant were also photoaffinity labelled with ^125 I-NASV. […] In contrast, radiolabelling of the 150-180 kDa component in the DC-3F/ADX-U revertant cells was increased by only about 15-fold. […] In other studies, a number of drug-sensitive cell lines have been shown by immunoblottings to have barely detectable levels of analogous 150-180 kDa surface membrane glycoproteins compared to the corresponding multidrug-resistant variants. […]

Data set [4] can be described thus: In-vitro NABV metabolism in calf brain homogenates. The data set is classed as in vitro ADME. To be noted: dark, 30-60 minutes at 0°, 25°, and 37° C. Here is the method:
In-vitro NABV Metabolism Calf brain homogenates (100 micrograms protein) were incubated with 3H-NABV under standard photolabelling conditions for 30 minutes at 25° C. in the absence of UV light. The mixture was then extracted with 1 ml chloroform and analyzed for radioactive materials in the organic extract by silica gel thin layer chromatography using Solvent I.
This was confirmed by incubating ^3 H-NABV with brain homogenates in the dark for 30-60 minutes at 0°, 25°, and 37° C., subsequently extracting the mixtures with chloroform, and analyzing for radioactive metabolites by silica gel thin layer chromatography and high pressure liquid chromatography. A single radioactive spot corresponded to the Rf of NABV and accounted for more than 98% of the recovered radioactivity.

For data set [5], the system named is 150-180 kDa surface membrane glycoprotein (gp150-180). Briefly: Photoaffinity labelling of cell particulate fractions / plasma membranes with ^3 H-NABV, competition by vinblastine. The data set is classed as binding, Chinese hamster. Here is the method:
as §6, with “The particulate pellet was washed by resuspending in the same buffer, and the whole cell particulate fraction was obtained by a second centrifugation. Purified plasma membranes were prepared by sucrose density gradient centrifugation as described in Peterson et al in J. Supramolecular Structure 9, 289-298 (1978).” left out
Photolabelling of membrane samples (50 micrograms protein) was performed in 40 nM potassium phosphate buffer (pH 7.0) containing 4% Me2 SO and 50 nM of either ^3 H-NABV (0.1 microCi) or ^125 I-NASV (0.2 microCi) in a final volume of 0.050 ml. […] The quantitation of radiolabelling was accomplished by cutting appropriate areas from the gel and counting the pieces in a gamma counter. […]

The test system is the same in data set [6]. Kind of data set: Immunoprecipitation of ^125 I-NASV photolabelled, detergent solubilized membranes with antibody specific for gp150-180. The data set is classed as binding, Chinese hamster. The conditions noted are these: DC-3F/VCRd-5L membranes, vinblastine. Here is the method: Immunoprecipitations were performed by extracting membranes (20 micrograms protein) for fifteen minutes at 4° C. with 100 microliters of 50 mM Tris-HCl buffer (pH 7.0) containing 150 mM NaCl, 1% Triton X-100, 1% sodium deoxycholate, 0.1% SDS, 1 mM ethylenediamine tetraacetic acid, 1 mM phenylmethylsulfonylfluoride, and 10 mg/ml Trayslol (Boehringer Mannheim, Indianapolis, IN). The mixtures were then incubated for one hour at 5° C. with 10 microliters rabbit polyclonal antibody specific for multidrug-resistant 150-180 kDa surface membrane glycoprotein (gp150-180).Immune complexe were obtained by incubating the mixture with Protein A-Sepharose (Pharmacia, Piscataway, NJ) for one hour at 5° C. and recovering the beads after washing four times. […]
Photolabelling of membrane samples (50 micrograms protein) was performed in 40 nM potassium phosphate buffer (pH 7.0) containing 4% Me2 SO and 50 nM of either ^3 H-NABV (0.1 microCi) or ^125 I-NASV (0.2 microCi) in a final volume of 0.050 ml. […] The quantitation of radiolabelling was accomplished by cutting appropriate areas from the gel and counting the pieces in a gamma counter.
The radiolabelled 150-180 kDa polypeptide was immunoprecipitated only from membrane extracts of drug-resistant cells. No radioactivity was precipitated when nonimmune serum was used in place of the specific antibody. […]

Data set [7] concerns P388 murine leukemic cells. Briefly: Growth inhibition of exponentially growing P388 cells. The data set is classed as cell-based. To be noted: Mus musculus; 72 hours exposure; exponentially growing P388 cells; read-out: IC50. From the text:
Thus, NABV is ideal for probing intracellular Vinca alkaloid interactions because it retains the known biochemical and pharmacological properties of this class of drugs.

The test system of data set [8] is microtubule. Briefly: In vitro microtubule assembly. The data set is classed as biochemical. The conditions noted are these: both drugs at similar concentrations.
Data set [9] relates to tubulin. Briefly: Tubulin aggregation. The data set is classed as biochemical. To be noted: both drugs at similar concentrations.
Data set [10] has as its system tubulin. Kind of data set: Tubulin-dependent GTP hydrolysis. The data set is classed as biochemical. The conditions noted are these: both drugs at similar concentrations.
Where [11] appears, read: 0.44 micromoles ^3 H-NABV, competitor 1-22 micromoles.
The mark [12] stands for this setting: corrected for nonspecific labelling, apparent, not a true equilibrium constant, read-out: half maximal saturation photolabelling.
Setting [13] is: saturation photolabelling experiments.

In the case of `Nc1ccc(C(=O)O)cc1` [p-aminobenzoic acid], the “reduction of photolabelling by nitrene scavenger” value in [1] (100-fold excess over [^3 H]-NABV) came to 25%; in [2] (10^4 -fold molar excess), 30%. For the same compound, the “further reduction of photolabelling by nitrene scavenger” value in [1] (up to 10^4 -fold molar excess) is “no significant further reduction”. In addition, the “effect of nitrene scavenger on photolabelling” value in [2] (10^3 -fold molar excess) was “no significant effect”.
Turning to “N-(p-azido-3-[^125 I-]-salicyl-N'-beta-aminoethylvindesine [^125 I-NASV]”, the “increase of radiolabelling of the 150-180 kDa component versus drug-sensitive parental cells” value is reported as “about 15 fold” in data set [3] (DC-3F/ADX-U revertant cells) and “up to 150 fold” in data set [3] (drug-resistant variants (DC-3F/VCRd-5L, DC-3F/ADX)).
With `COc1cccc2c1C(=O)c1c(O)c3c(c(O)c1C2=O)C[C@@](O)(C(C)=O)C[C@@H]3O[C@H]1C[C@H](N)[C@H](O)[C@H](C)O1` [daunorubicin], the “effect of increasing concentrations of competitor on photolabelling” value in data set [1] (setting [11]) and in data set [2] (setting [11]) was “negligible effects” in each case.
With “N-(p-azido-[3,4-^3 H]benzoyl)-N'-beta-aminoethylvindesine [^3 H-NABV]”, the maximum saturable incorporation in [1] was 5.5 pmol ^3 H-NABV bound/mg of calf brain homogenate protein; in data set [2] it was 0.9 pmol ^3 H-NABV bound/mg of calf brain homogenate protein. Further, the values for the Kd in data set [1] (setting [12]) and in data set [2] (setting [12]) were 208 nM and 95 nM, respectively. In addition, the “percent of total labelling ascribed to nonspecific labelling” value in data set [1] (setting [13]) stood at 48%; in [2] (setting [13]), 51%. Also, the “metabolism under standard photolabelling conditions” value in data set [4] is “no appreciable metabolism”. Moreover, the “recovered radioactivity in the single spot corresponding to the Rf of NABV” value in [4] (TLC and HPLC) was “more than 98%”.
In the case of `CC[C@]1(O)C[C@@H]2CN(CCc3c([nH]c4ccccc34)[C@@](C(=O)OC)(c3cc4c(cc3OC)N(C)[C@H]3[C@@](O)(C(=O)OC)[C@H](OC(C)=O)[C@]5(CC)C=CCN6CC[C@]43[C@@H]65)C2)C1` [vinblastine], the “reduction of radiolabelling of the 150-180 kDa component” value in [5] (sucrose density gradient purified plasma membranes, 10 micromole vinblastine) is 59%; in [3] (drug-resistant variants, ^125 I-NASV, 10 micromoles vinblastine), 80-90%. Besides, the “radiolabelling of the 150-180 kDa component in the presence of vinblastine” value is reported as “substantially reduced” in [5] (whole cell particulate fractions, DC-3F/VCRd-5L, 10 micromoles vinblastine); “completely absent” in data set [3] (parental and revertant cells, ^125 I-NASV, 10 micromoles vinblastine). The “reduction of radiolabel in the immunoprecipitate” value in [6] worked out at 96%. In addition, the IC50 in data set [7] is 0.6 nM. Besides, in data set [8], the “effect on in vitro microtubule assembly” value is given as “inhibit in vitro microtubule assembly”. The “effect on tubulin aggregation” value in [9] was “induce tubulin aggregation”. In addition, in [10], the “effect on tubulin-dependent GTP hydrolysis” value is on record as “inhibit tubulin-dependent GTP hydrolysis”.
